Source: US20210214364A1, “sGC STIMULATORS” (Cyclerion Therapeutics, Inc., priority 2013, published 2021)
Blank lines part the entries; values can stand above or below the molecule they belong to.

Key:
[1] = test system: lambs with acute pulmonary hypertension (U-46619); conditions: cited from earlier work; for effect on mean arterial pressure / pulmonary vasodilation / transpulmonary cGMP release / systemic arterial oxygenation: awake lambs; for effect on mean arterial pressure / pulmonary vasodilation / transpulmonary cGMP release: U-46619 infusion
[2] = test system: Guinea pig tracheal smooth muscle (GPTSM); conditions: guinea pig tracheal strips, sub-maximal EFS; 95% Cl 0.78-0.94; read-out: IC50, inhibition of baseline EFS-induced contraction; cited from earlier work
obese mice = conditions: cited from earlier work
patients with BMD = conditions: single oral dose of 20 mg, double-blind randomized placebo-controlled crossover trial; cited from earlier work
[3] = target: T1, soluble guanylate cyclase (sGC) endogenously expressed in HEK293 cells (Homo sapiens, UniProt Q02108+Q02153); test: sGC-HEK-cGMP assay with LC/MS detection (whole cell); type: cell-based; conditions: 10 μM DETA-NONOate, 20 min, concentration eliciting 50% of high control response (30 μM Compound Y), read-out: sGC_HEK_LC MS EC50 Abs
T1 construct: endogenously expressing soluble guanylate cyclase (sGC); endogenous in cells; host or cells: HEK293
T1 sequence (Q02153 1-619): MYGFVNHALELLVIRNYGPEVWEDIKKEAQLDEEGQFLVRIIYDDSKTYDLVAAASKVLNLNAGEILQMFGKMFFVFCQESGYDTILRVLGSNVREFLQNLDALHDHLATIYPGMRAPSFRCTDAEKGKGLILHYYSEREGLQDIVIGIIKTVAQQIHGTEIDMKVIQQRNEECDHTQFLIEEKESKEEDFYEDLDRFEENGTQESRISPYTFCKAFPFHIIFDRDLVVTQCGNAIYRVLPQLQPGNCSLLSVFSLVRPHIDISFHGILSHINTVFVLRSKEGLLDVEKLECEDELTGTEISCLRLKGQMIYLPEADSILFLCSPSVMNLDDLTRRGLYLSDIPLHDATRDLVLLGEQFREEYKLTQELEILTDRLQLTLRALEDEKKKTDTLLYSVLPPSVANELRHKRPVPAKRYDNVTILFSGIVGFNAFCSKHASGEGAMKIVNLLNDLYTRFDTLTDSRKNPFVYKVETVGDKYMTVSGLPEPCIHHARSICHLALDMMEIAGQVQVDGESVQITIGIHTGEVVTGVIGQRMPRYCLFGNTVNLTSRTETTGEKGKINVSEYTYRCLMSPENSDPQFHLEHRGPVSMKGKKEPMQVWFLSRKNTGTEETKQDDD
T1 sequence (Q02108 1-690): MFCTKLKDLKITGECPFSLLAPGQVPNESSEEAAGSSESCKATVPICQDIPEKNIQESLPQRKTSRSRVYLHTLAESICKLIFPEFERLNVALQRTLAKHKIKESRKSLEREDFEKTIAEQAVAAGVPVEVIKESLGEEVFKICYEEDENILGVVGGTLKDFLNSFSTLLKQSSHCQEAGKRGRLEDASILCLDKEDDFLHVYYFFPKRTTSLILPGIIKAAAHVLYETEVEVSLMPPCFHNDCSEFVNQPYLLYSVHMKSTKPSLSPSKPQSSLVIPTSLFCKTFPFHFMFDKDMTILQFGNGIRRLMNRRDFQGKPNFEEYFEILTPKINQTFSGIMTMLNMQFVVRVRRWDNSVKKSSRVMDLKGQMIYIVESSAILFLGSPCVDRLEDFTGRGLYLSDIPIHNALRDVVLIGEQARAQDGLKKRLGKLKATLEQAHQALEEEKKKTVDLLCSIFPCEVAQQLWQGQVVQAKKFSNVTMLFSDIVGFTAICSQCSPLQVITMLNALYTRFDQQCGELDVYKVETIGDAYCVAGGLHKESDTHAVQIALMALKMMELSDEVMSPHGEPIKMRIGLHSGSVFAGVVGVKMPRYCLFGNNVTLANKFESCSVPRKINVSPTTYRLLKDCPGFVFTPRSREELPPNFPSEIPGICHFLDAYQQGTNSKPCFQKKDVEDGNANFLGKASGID
Procedure: Example 2: Biological Activity Measurement by the sGC-HEK-cGMP Assay, with LC/MS Detection
Human embryonic kidney cells (HEK293), endogenously expressing soluble guanylate cyclase (sGC), were used to evaluate the activity of test compounds. Compounds stimulating the sGC enzyme should cause an increase in the intracellular concentration of cGMP. HEK 293 cells were seeded in Dulbecco's Modification of Eagle's Medium supplemented with fetal bovine serum (10% final) and penicillin (100 U/mL)/streptomycin (100 μg/mL) in a 50 μL volume at a density of 1.5×10^4 cells/well in a poly-D-lysine coated 384 well flat bottom plate. Cells were incubated overnight at 37° C. in a humidified chamber with 5% CO2. Medium was aspirated and cells were washed with 1× Hank's Buffered Saline Salt Solution (50 μL). Cells were then incubated for 15 minutes at 37° C. with 50 μL of a 0.5 mM 3-isobutyl-1-methylxanthine (IBMX) solution. Test article and Diethylenetriamine NONOate (DETA-NONOate) solutions (x […] concentration for test article solution and 10 μM concentration for DETA-NONOate solution; wherein x is one of the following concentrations);
were then added to the assay mixture and the resulting mixture incubated at 37° C. for 20 minutes. After the 20 minute incubation, the assay mixture was aspirated and 10% acetic acid containing 150 ng/mL+3-cGMP (internal standard for LCMS) (50 μL) was added to the cells. The plate was incubated at 4° C. for 30 minutes in the acetic acid solution to stop the reaction and lyse the cells. The plates were then centrifuged at 1,000 g for 3 minutes at 4° C. and the supernatant transferred to a clean reaction plate for LCMS analysis.
cGMP concentrations were determined from each sample using the LCMS conditions below (Table 2) and calculated standard curve. The standard curve was prepared in 10% acetic acid with 150 ng/mL+3cGMP (isotopically labelled cGMP with a weight 3 units higher than wild type) with the following final concentrations of cGMP in ng/mL: 1, 5, 10, 50, 100, 250, 500, 1000, 2000.
Data were normalized to a high control using the following equation: 100*(Sample−Low Control)/(High Control−Low Control), where the low control is the average of 16 samples treated with 1% DMSO, and the high control is the average of 16 samples treated with 30 μM of Compound Y depicted below. Data were fit using a 4-parameter fit (log(agonist) vs. response variable slope) using GraphPad Prism Software v.5. n=2 for all compounds. The Absolute EC50 was interpolated from the curve fit and is defined as the concentration at which a given compound elicits 50% of the high control response. Compounds failing to elicit a minimum response of 50% are reported as >30 μM. For compounds run in duplicate or n higher than 2, the result herein given is the geometric mean of the several results obtained.

NO-deficient rats = conditions: cited from earlier work

SMILES: Nc1nc(-c2nn(Cc3ccccc3F)c3ncccc23)ncc1C1CC1 [BAY 41-2272]
- effect on mean arterial pressure ([1]; inhaled microparticles): without significant effect on mean arterial pressure
- pulmonary vasodilation ([1]; inhaled microparticles): dose dependent pulmonary vasodilation
- transpulmonary cGMP release ([1]; inhaled microparticles): increased transpulmonary cGMP release

SMILES: Nc1nc(-c2nn(Cc3ccccc3F)c3ncccc23)nc(N)c1N1CCOCC1 [BAY 41-8543]
- magnitude and duration of pulmonary vasodilation induced by iNO ([1]; after inhaling microparticles): augmented
- effect on mean arterial pressure ([1]; inhaled microparticles): without significant effect on mean arterial pressure
- pulmonary vasodilation ([1]; inhaled microparticles): dose dependent pulmonary vasodilation
- transpulmonary cGMP release ([1]; inhaled microparticles): increased transpulmonary cGMP release
- systemic arterial oxygenation ([1]; inhaled microparticles): increased systemic arterial oxygenation

SMILES: CC(C)[N+]1(C)[C@@H]2CC[C@H]1C[C@@H](OC(=O)C(CO)c1ccccc1)C2 (some centres unmarked) [Ipratropium bromide]
- IC50 [2]: 0.00086 µM

SMILES: O=C(O)CCCCN(CCc1ccccc1OCc1ccc(CCc2ccccc2)cc1)Cc1ccc(C(=O)O)cc1 [BAY 58-2667]
- pulmonary vasodilation and transpulmonary cGMP release after treatment with ODQ ([1]; inhaled microparticles, after intravenous ODQ): greatly enhanced
- effect on mean arterial pressure ([1]; inhaled microparticles): without significant effect on mean arterial pressure
- pulmonary vasodilation ([1]; inhaled microparticles): dose dependent pulmonary vasodilation
- transpulmonary cGMP release ([1]; inhaled microparticles): increased transpulmonary cGMP release
- systemic arterial oxygenation ([1]; inhaled microparticles): increased systemic arterial oxygenation

SMILES: O=C(O)CCCCN(CCc1cc(F)ccc1OCc1ccc(-c2ccc(C(F)(F)F)cc2)cc1)Cc1ccc(C(=O)O)cc1 [BAY 60-2770]
- effect on overactive bladder (obese mice): ameliorates overactive bladder in obese mice

SMILES: CN1CC(=O)N2[C@H](c3ccc4c(c3)OCO4)c3[nH]c4ccccc4c3C[C@@H]2C1=O [tadalafil]
- normal blood flow regulation (patients with BMD): restored in eight of nine patients

- EC50 [3]: ≥ 1 µM
SMILES: COc1cc(-c2ncc(F)c(NC(c3nnn[nH]3)C(C)C)n2)nn1Cc1ccccc1F (centres unmarked) [Compound I-65]

- EC50 [3]: 0.101 to 1 µM
SMILES: COc1cc(-c2ncc(F)c(NC[C@@H](C(=O)O)C(C)C)n2)nn1Cc1ccccc1F [Compound I-60]

SMILES: Cn1c(-c2nc(N)c3c(n2)NC(=O)C3(C)C(N)=O)nn(Cc2ccccc2F)c1=O (centres unmarked) [Compound I-18]
- EC50 [3]: ≥ 1 µM

- EC50 [3]: ≥ 1 µM
SMILES: COc1cc(-c2ncc(F)c(N3CCCCC3)n2)nn1Cc1ccccc1F [Compound I-31]

- EC50 [3]: 0.101 to 1 µM
SMILES: COc1cc(-c2ncc(F)c(NCC(O)(C(N)=O)C(F)(F)F)n2)nn1Cc1ccccc1F (centres unmarked) [Compound I-20]

SMILES: COc1nc(-c2nc(N)c3c(n2)NC(=O)C3(C)C(=O)NC2CC2)nn1Cc1ccccc1F (centres unmarked) [Compound I-37]
- EC50 [3]: ≥ 1 µM

- EC50 [3]: ≥ 1 µM
SMILES: COc1cc(-c2ncc(F)c(N3CCC(O)(CO)CC3)n2)nn1Cc1ccccc1F [Compound I-61]

- EC50 [3]: 0.101 to 1 µM
SMILES: COc1cc(-c2ncc(F)c(N3CCC(C(=O)O)(C(C)C)CC3)n2)nn1Cc1ccccc1F [Compound I-67]

- EC50 [3]: ≥ 1 µM
SMILES: COc1cc(-c2ncc(F)c(N3CCCC3)n2)nn1Cc1ccccc1F [Compound I-22]

- EC50 [3]: ≥ 1 µM
SMILES: COc1cc(-c2ncc(F)c(NCC(O)CO)n2)nn1Cc1ccccc1F (centres unmarked) [Compound I-64]

- EC50 [3]: 0.101 to 1 µM
SMILES: CCOC(=O)C1(C)C(=O)Nc2nc(-c3cc(OC)n(Cc4ccccc4F)n3)[nH]c(=O)c21 (centres unmarked) [Compound I-35]

SMILES: Nc1nc(-c2nn(Cc3ccccc3F)c3ncccc23)ncc1C1CC1 [BAY-2272]
- effect on bladder dysfunction (NO-deficient rats): protective effects

- EC50 [3]: 0.101 to 1 µM
SMILES: COc1c(C#N)c(-c2nc(N)c3c(n2)NC(=O)C3(C)C(N)=O)nn1Cc1ccccc1F (centres unmarked) [Compound I-25]

- EC50 [3]: ≥ 1 µM
SMILES: COc1cc(-c2ncc(F)c(=O)[nH]2)nn1Cc1ccccc1F [Compound I-5]

SMILES: COc1cc(-c2ncc(F)c(NCCCCC(=O)O)n2)nn1Cc1ccccc1F [Compound I-32]
- EC50 [3]: 0.101 to 1 µM

- EC50 [3]: ≥ 1 µM
SMILES: CC1(C(N)=O)C(=O)Nc2nc(-c3cc(OC(F)F)n(CCC(F)(F)C(F)(F)F)n3)nc(N)c21 (centres unmarked) [Compound I-41]
